Measured values from patent publication US20100234339A1, “SILVER(I) COMPOUNDS AND THEIR USE IN PHARMACEUTICAL COMPOSITIONS FOR THE TREATMENT,PROPHYLAXIS AND PREVENTION OF INFECTIONS” (priority 2007, published 2010).

Key:
Solubility in DMSO = type: physicochemical; details: sparingly soluble
P. mirabilis 1 = assay: MIC, broth microdilution (NCCLS); type: cell-based; details: Gram negative; resistant clinical isolate from diabetic foot ulcer; MHB 24 h 35° C.
Experimental: (§1) Their antimicrobial activity was established according to the recommendations of NCCLS, (National Committee for Clinical Laboratory Standards 1999, “Performance standards for antimicrobial susceptibility testing. NCCLS approved standard M100-S9” Wayne, Pa.) by the use of a broth microdilution method. Minimum inhibitory concentrations (MICs) for the tested compound were conducted using 12 different pathogens clinically isolated from diabetic foot ulcers and are all resistant strains for at least 10 antibiotics used for diabetic foot ulcer treatment. S. aureus 1, 2 and 3 and S. pyogenes 1, 2 and 3 as […] bacteria and P. mirabilis 1, 2 and 3 and Ps. aeruginosa 1, 2 and 3 as […] bacteria. The test materials were dissolved in DMSO. The highest concentration used was 256 μg/ml. The inoculum was 10^5CFU/ml for bacteria and 10^4CFU/ml for the yeast. Bacteria were cultured in Mueller Hinton Broth (MHB) for 24 h at 35° C. and the yeast in Glucose Peptone Broth (GPB) for 48 h at 30° C. MIC value was corresponding to the lowest concentration that inhibited the bacterial growth.
(§2) For the following seven samples, MICs values were determined and the antimicrobial activity is inversely proportional to this value. Concentrations used in this screening were: 1, 2, 4, 8, 16, 32, 64, 128 and 256 (μg/ml). 1 μg/ml corresponds to a 10^−4% solution and an Ag(I) concentration of about 2·10^−6 mol/dm^3.

S. pyogenes 3 = assay: MIC, broth microdilution (NCCLS); type: cell-based; details: Gram positive; resistant clinical isolate from diabetic foot ulcer; MHB 24 h 35° C.
Experimental: as §1, §2

P. mirabilis 2 = assay: MIC, broth microdilution (NCCLS); type: cell-based; details: Gram negative; resistant clinical isolate from diabetic foot ulcer; MHB 24 h 35° C.
Experimental: as §1, §2

P. mirabilis 3 = assay: MIC, broth microdilution (NCCLS); type: cell-based; details: Gram negative; resistant clinical isolate from diabetic foot ulcer; MHB 24 h 35° C.
Experimental: as §1, §2

Ps. aeruginosa 1 = assay: MIC, broth microdilution (NCCLS); type: cell-based; details: Gram negative; resistant clinical isolate from diabetic foot ulcer; MHB 24 h 35° C.
Experimental: as §1, §2

S. aureus 1 = assay: MIC, broth microdilution (NCCLS); type: cell-based; details: Gram positive; resistant clinical isolate from diabetic foot ulcer; MHB 24 h 35° C.
Experimental: as §1, §2

S. aureus 3 = assay: MIC, broth microdilution (NCCLS); type: cell-based; details: Gram positive; resistant clinical isolate from diabetic foot ulcer; MHB 24 h 35° C.
Experimental: as §1, §2

S. aureus 2 = assay: MIC, broth microdilution (NCCLS); type: cell-based; details: Gram positive; resistant clinical isolate from diabetic foot ulcer; MHB 24 h 35° C.
Experimental: as §1, §2

S. pyogenes 1 = assay: MIC, broth microdilution (NCCLS); type: cell-based; details: Gram positive; resistant clinical isolate from diabetic foot ulcer; MHB 24 h 35° C.
Experimental: as §1, §2

S. pyogenes 2 = assay: MIC, broth microdilution (NCCLS); type: cell-based; details: Gram positive; resistant clinical isolate from diabetic foot ulcer; MHB 24 h 35° C.
Experimental: as §1, §2

Compound	solubility in DMSO (Solubility in DMSO)	MIC P. mirabilis 1 (P. mirabilis 1)	MIC S. pyogenes 3 (S. pyogenes 3)	MIC P. mirabilis 2 (P. mirabilis 2)	MIC P. mirabilis 3 (P. mirabilis 3)	MIC Ps. Aeruginosa 1 (Ps. aeruginosa 1)	MIC S. aureus 1 (S. aureus 1)	MIC S. aureus 3 (S. aureus 3)	MIC S. aureus 2 (S. aureus 2)	MIC S. pyogenes 1 (S. pyogenes 1)	MIC S. pyogenes 2 (S. pyogenes 2)
CCOC(=O)c1cccnc1.O=[N+]([O-])[O-].[Ag+] [Compound 2, [Ag(ethylnicotinate)2]NO3]	3000 to 5000 µg/mL	128 µg/mL	2 µg/mL	128 µg/mL	256 µg/mL	64 µg/mL	16 µg/mL	4 µg/mL	4 µg/mL	2 µg/mL	4 µg/mL
CCOC(=O)c1ccncc1.O=[N+]([O-])[O-].[Ag+] [Compound 3, [Ag(ethylisonicotinato)2]NO3]	3000 to 5000 µg/mL	8 µg/mL	16 µg/mL	2 µg/mL	16 µg/mL	32 µg/mL	8 µg/mL	16 µg/mL	4 µg/mL	32 µg/mL	16 µg/mL
COC(=O)c1ccncc1.O=[N+]([O-])[O-].[Ag+] [Compound 4, [Ag(methylisonicotinate)2]NO3]	3000 to 5000 µg/mL	2 µg/mL	64 µg/mL	1 µg/mL	2 µg/mL	128 µg/mL	16 µg/mL	8 µg/mL	32 µg/mL	64 µg/mL	128 µg/mL
Nc1ncccc1C(=O)O.Nc1ncccc1C(=O)O.O=[N+]([O-])[O-].O=[N+]([O-])[O-].[Ag+].[Ag+] [Compound 6, [Ag2-μ-O,O′(2-aminonicotinium)2](NO3)2]	–	64 µg/mL	256 µg/mL	16 µg/mL	32 µg/mL	8 µg/mL	32 µg/mL	64 µg/mL	32 µg/mL	128 µg/mL	256 µg/mL
